Test results: ChEMBL document CHEMBL1629667, “Activities of dalbavancin against a worldwide collection of 81,673 gram-positive bacterial isolates” (2009)
Converted amounts (≈) assume the structure as drawn.

How the values were obtained:
Format in all cases: functional
Enterococcus faecalis [1] = assay: Antimicrobial activity against Vancomycin-nonsusceptible Enterococcus faecalis assessed as percent resistant isolates by broth microdilution method
Enterococcus faecium [2] = assay: Antimicrobial activity against Vancomycin-nonsusceptible Enterococcus faecium assessed as percent resistant isolates by broth microdilution method
Streptococcus [3] = assay: Antimicrobial activity against Beta-hemolytic Streptococcus assessed as percent resistant isolates by broth microdilution method
Enterococcus faecium [4] = assay: Antimicrobial activity against Vancomycin-susceptible Enterococcus faecium assessed as percent resistant isolates by broth microdilution method
Staphylococcus aureus [5] = assay: Antimicrobial activity against Oxacillin-resistant Staphylococcus aureus assessed as percent resistant isolate by broth microdilution method
Staphylococcus aureus [6] = assay: Antimicrobial activity against Oxacillin-susceptible Staphylococcus aureus by broth microdilution method
Staphylococcus aureus [7] = assay: Antimicrobial activity against Oxacillin-resistant Staphylococcus aureus by broth microdilution method
Staphylococcus [8] = assay: Antimicrobial activity against Oxacillin-susceptible coagulase-negative Staphylococcus by broth microdilution method
Staphylococcus [9] = assay: Antimicrobial activity against Oxacillin-resistant coagulase-negative Staphylococcus by broth microdilution method
Enterococcus faecalis [10] = assay: Antimicrobial activity against Vancomycin-susceptible Enterococcus faecalis by broth microdilution method
Enterococcus faecalis [11] = assay: Antimicrobial activity against Vancomycin-nonsusceptible Enterococcus faecalis by broth microdilution method
Enterococcus faecium [12] = assay: Antimicrobial activity against Vancomycin-susceptible Enterococcus faecium by broth microdilution method
Enterococcus faecium [13] = assay: Antimicrobial activity against Vancomycin-nonsusceptible Enterococcus faecium by broth microdilution method
Streptococcus [14] = assay: Antimicrobial activity against Beta-hemolytic Streptococcus by broth microdilution method
Streptococcus [15] = assay: Antimicrobial activity against viridans group Streptococcus by broth microdilution method
Staphylococcus aureus [16] = assay: Antimicrobial activity against Oxacillin-susceptible Staphylococcus aureus assessed as percent susceptible isolate by broth microdilution method
Staphylococcus [17] = assay: Antimicrobial activity against Oxacillin-susceptible coagulase-negative Staphylococcus assessed as percent susceptible isolate by broth microdilution method
Staphylococcus [18] = assay: Antimicrobial activity against Oxacillin-resistant coagulase-negative Staphylococcus assessed as percent susceptible isolate by broth microdilution method
Enterococcus faecalis [19] = assay: Antimicrobial activity against Vancomycin-susceptible Enterococcus faecalis assessed as percent susceptible isolate by broth microdilution method
Enterococcus faecalis [20] = assay: Antimicrobial activity against Vancomycin-nonsusceptible Enterococcus faecalis assessed as percent susceptible isolate by broth microdilution method
Enterococcus faecium [21] = assay: Antimicrobial activity against Vancomycin-susceptible Enterococcus faecium assessed as percent susceptible isolate by broth microdilution method
Enterococcus faecium [22] = assay: Antimicrobial activity against Vancomycin-nonsusceptible Enterococcus faecium assessed as percent susceptible isolate by broth microdilution method
Streptococcus [23] = assay: Antimicrobial activity against Beta-hemolytic Streptococcus assessed as percent susceptible isolate by broth microdilution method
Streptococcus [24] = assay: Antimicrobial activity against viridans group Streptococcus assessed as percent susceptible isolate by broth microdilution method
Enterococcus faecalis [25] = assay: Antimicrobial activity against Vancomycin-susceptible Enterococcus faecalis assessed as percent resistant isolates by broth microdilution method
Staphylococcus aureus [26] = assay: Antimicrobial activity against Oxacillin-susceptible Staphylococcus aureus assessed as percent resistant isolates by broth microdilution method
Staphylococcus aureus [27] = assay: Antimicrobial activity against Oxacillin-resistant Staphylococcus aureus assessed as percent susceptible isolate by broth microdilution method
Staphylococcus [28] = assay: Antimicrobial activity against Oxacillin-susceptible coagulase-negative Staphylococcus assessed as percent resistant isolate by broth microdilution method
Staphylococcus [29] = assay: Antimicrobial activity against Oxacillin-resistant coagulase-negative Staphylococcus assessed as percent resistant isolate by broth microdilution method

Molecule	Activity (Enterococcus faecalis [1]) [%]	Activity (Enterococcus faecium [2]) [%]	Activity (Enterococcus faecium [4]) [%]	Activity (Staphylococcus aureus [5]) [%]	MIC50 (Staphylococcus aureus [6]) [mg/L]	MIC90 (Staphylococcus aureus [6]) [mg/L]	MIC90 (Staphylococcus aureus [7]) [mg/L]	MIC50 (Staphylococcus [8]) [mg/L]	MIC90 (Staphylococcus [8]) [mg/L]	MIC50 (Enterococcus faecalis [10]) [mg/L]	MIC90 (Enterococcus faecalis [10]) [mg/L]	MIC50 (Enterococcus faecalis [11]) [mg/L]	MIC90 (Enterococcus faecalis [11]) [mg/L]	MIC50 (Enterococcus faecium [12]) [mg/L]	MIC90 (Enterococcus faecium [12]) [mg/L]	Activity (Enterococcus faecalis [19]) [%]	Activity (Enterococcus faecalis [20]) [%]	Activity (Enterococcus faecium [21]) [%]	Activity (Enterococcus faecium [22]) [%]	Activity (Enterococcus faecalis [25]) [%]	also measured
CC(=O)NC[C@H]1CN(c2ccc(N3CCOCC3)c(F)c2)C(=O)O1 [LINEZOLID]	1.4	1.8	0.3	0.04	2 (≈ 5.93 µM)	2 (≈ 5.93 µM)	2 (≈ 5.93 µM)	1 (≈ 2.96 µM)	1 (≈ 2.96 µM)	1 (≈ 2.96 µM)	2 (≈ 5.93 µM)	1 (≈ 2.96 µM)	2 (≈ 5.93 µM)	1 (≈ 2.96 µM)	2 (≈ 5.93 µM)	99.8	98.6	99.6	97.6	0.1	Activity (Streptococcus [3]): 1.3%; MIC50 (Staphylococcus aureus [7]): 1 mg/L (≈ 2.96 µM); MIC50 (Staphylococcus [9]): 1 mg/L (≈ 2.96 µM); MIC90 (Staphylococcus [9]): 1 mg/L (≈ 2.96 µM); MIC50 (Enterococcus faecium [13]): 1 mg/L (≈ 2.96 µM); MIC90 (Enterococcus faecium [13]): 2 mg/L (≈ 5.93 µM); MIC50 (Streptococcus [14]): 1 mg/L (≈ 2.96 µM); MIC90 (Streptococcus [14]): 1 mg/L (≈ 2.96 µM); MIC50 (Streptococcus [15]): 1 mg/L (≈ 2.96 µM); MIC90 (Streptococcus [15]): 1 mg/L (≈ 2.96 µM); Activity (Staphylococcus aureus [16]): 100%; Activity (Staphylococcus [17]): 99.9%; Activity (Staphylococcus [18]): 99.5%; Activity (Streptococcus [23]): 100%; Activity (Streptococcus [24]): 99.9%
GENTAMICIN	71.6	35.7	38.2	24.8	< 2	< 2	> 8	< 2	< 2	< 500	> 1000					68.5	28.4	61.8	64.3	31.5	Activity (Staphylococcus aureus [26]): 2.6%; MIC50 (Staphylococcus aureus [7]): < 2 mg/L; MIC50 (Staphylococcus [9]): 4 mg/L; MIC90 (Staphylococcus [9]): > 8 mg/L; Activity (Staphylococcus aureus [16]): 97.1%; Activity (Staphylococcus aureus [27]): 74.1%; Activity (Staphylococcus [17]): 95%; Activity (Staphylococcus [18]): 50.7%; Activity (Staphylococcus [28]): 3.1%; Activity (Staphylococcus [29]): 35.3%
CN(C)[C@@H]1C(O)=C(C(N)=O)C(=O)[C@@]2(O)C(O)=C3C(=O)c4c(O)cccc4[C@@](C)(O)[C@H]3C[C@@H]12 [TETRACYCLINE]				18.4	≤ 4	≤ 4	> 8	≤ 4	> 8												Activity (Staphylococcus aureus [26]): 5.8%; MIC (Staphylococcus aureus [6]): ≤ 4 mg/L; MIC (Staphylococcus [8]): ≤ 4 mg/L; Activity (Staphylococcus aureus [16]): 93.7%; Activity (Staphylococcus aureus [27]): 81.1%; Activity (Staphylococcus [17]): 86.7%; Activity (Staphylococcus [18]): 83.4%; Activity (Staphylococcus [28]): 12.6%; Activity (Staphylococcus [29]): 15.8%
CC1(C)S[C@@H]2[C@H](NC(=O)[C@H](N)c3ccccc3)C(=O)N2[C@H]1C(=O)O [AMPICILLIN]	4	99.2	84.4							≤ 2	≤ 2	≤ 2	4 (≈ 11.4 µM)	> 16	> 16	99.6	96	15.6	0.8	0.2	MIC (Enterococcus faecalis [10]): ≤ 2 mg/L; MIC (Enterococcus faecalis [11]): ≤ 2 mg/L; MIC50 (Enterococcus faecium [13]): > 16 mg/L; MIC90 (Enterococcus faecium [13]): > 16 mg/L
O=C(O)c1cn(C2CC2)c2cc(N3CCNCC3)c(F)cc2c1=O [CIPROFLOXACIN]	96.3		83.7							1 (≈ 3.02 µM)	> 4	> 4	> 4	> 4	> 4	62.2	3.7	8.1	0.7	33.6	MIC50 (Enterococcus faecium [13]): > 4 mg/L; MIC90 (Enterococcus faecium [13]): > 4 mg/L
